Publication PMC5681660, “Reduced hepatitis B and D viral entry using clinically applied drugs as novel inhibitors of the bile acid transporter NTCP” (Scientific Reports, 2017)
Structures can show the parent of a compound that is named as a salt.

Molecular target: T1, human NTCP (Homo sapiens, UniProt Q14973)
T1 sequence (Q14973 1-349): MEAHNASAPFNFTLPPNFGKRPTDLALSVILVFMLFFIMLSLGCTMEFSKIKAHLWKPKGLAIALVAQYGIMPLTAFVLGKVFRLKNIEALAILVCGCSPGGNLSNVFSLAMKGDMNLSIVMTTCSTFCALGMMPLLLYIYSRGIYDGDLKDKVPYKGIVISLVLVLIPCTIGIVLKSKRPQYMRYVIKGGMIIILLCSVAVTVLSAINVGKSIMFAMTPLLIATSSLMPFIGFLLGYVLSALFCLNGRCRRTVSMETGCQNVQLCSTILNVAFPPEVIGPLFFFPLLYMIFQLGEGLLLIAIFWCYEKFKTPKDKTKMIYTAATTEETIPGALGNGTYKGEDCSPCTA
Experiment: Screening taurocholate uptake assay (96-well, [14C]taurocholate, 10 µM drug)
Conditions: for B-score functional assay: screening taurocholate uptake, 10 µM drug

[1] = ranking over the functional and the binding screening assay
[2] = combined ranking of functional and binding screening assays

Row | SMILES | Ranking score [1] | B-score functional assay | Ranking score [2] | B-score functional assay (B-score)
1 | O=C(OCCOCCO)c1ccccc1Nc1cccc(C(F)(F)F)c1 [Etofenamate] | 165.439 | 1.885 |  | 
2 | C=C1C[C@@H]2[C@H](CC[C@]3(C)C(=O)CC[C@@H]23)[C@@]2(C)C=CC(=O)C=C12 [Exemestane] |  | -0.634 | 568.146 | 
3 | CC(=O)OCC(CCn1cnc2cnc(N)nc21)COC(C)=O [Famciclovir] |  | 0.016 | 539.09 | 
4 | NC(=O)OCC(COC(N)=O)c1ccccc1 [Felbamate] |  | 0.213 | 558.78 | 
5 | O=C(O)Cc1ccc(-c2ccccc2)cc1 [Felbinac] |  | -1.207 | 476.874 | 
6 | CCOC(=O)C1=C(C)NC(C)=C(C(=O)OC)C1c1cccc(Cl)c1Cl (centres unmarked) [Felodipine] |  | 1.073 | 465.188 | 
7 | COC(=O)Nc1nc2ccc(Sc3ccccc3)cc2[nH]1 [Fenbendazole] |  |  | 1220.76 | 1.989
8 | CC(C)OC(=O)C(C)(C)Oc1ccc(C(=O)c2ccc(Cl)cc2)cc1 [Fenofibrate] | 212.979 | -0.159 |  | 
9 | Oc1ccc(C2CNCCc3c2cc(O)c(O)c3Cl)cc1 (centres unmarked) [Fenoldopam] | 222.621 | 0.056 |  | 
10 | CC(C)(C(=O)O)c1ccc(C(O)CCCN2CCC(C(O)(c3ccccc3)c3ccccc3)CC2)cc1 (centres unmarked) [Fexofenadine HCl] | 234.288 | -2.318 |  | 
11 | O=C(COc1ccc(Cl)cc1)N1CCN(Cc2ccc3c(c2)OCO3)CC1 [Fipexide hydrochloride] | 172.884 | -2.118 |  | 
12 | CN1CCN(c2c(F)cc3c(=O)c(C(=O)O)cn(CCF)c3c2F)CC1 [Fleroxacin] |  |  | 1148.84 | 1.693
13 | CS(=O)(=O)c1ccc([C@@H](O)[C@@H](CF)NC(=O)C(Cl)Cl)cc1 [Florfenicol] | 235.125 | -0.913 |  | 
14 | OC(Cn1cncn1)(Cn1cncn1)c1ccc(F)cc1F [Fluconazole] |  | 1.083 | 553.146 | 
15 | C[C@@H]1C[C@H]2[C@@H]3C[C@H](F)C4=CC(=O)C=C[C@]4(C)[C@@]3(F)[C@@H](O)C[C@]2(C)[C@@]1(O)C(=O)COC(=O)C(C)(C)C [Flumethasone pivalate] |  | 0.019 | 535.546 | 
16 | Cc1c(Nc2ncccc2C(=O)O)cccc1C(F)(F)F [Flunixin meglumine] | 133.828 | -2.582 |  | 
17 | CC(=O)OCC(=O)[C@@]12OC(C)(C)O[C@@H]1C[C@H]1[C@@H]3C[C@H](F)C4=CC(=O)C=C[C@]4(C)[C@@]3(F)[C@@H](O)C[C@@]12C [Fluocinonide] |  | 0.319 | 619.745 | 
18 | CC(=O)[C@@]1(O)CC[C@H]2[C@@H]3C[C@H](C)C4=CC(=O)C=C[C@]4(C)[C@@]3(F)[C@@H](O)C[C@@]21C [Fluorometholone] |  | -0.26 | 616.409 | 
19 | CNCCC(Oc1ccc(C(F)(F)F)cc1)c1ccccc1 (centres unmarked) [Fluoxetine hydrochloride] | 265.518 |  |  | 
20 | OCCN1CCN(CCCN2c3ccccc3Sc3ccc(C(F)(F)F)cc32)CC1 [Fluphenazine dihydrochloride] | 99.0152 | -4.102 |  | 
21 | CC(C(=O)O)c1ccc(-c2ccccc2)c(F)c1 (centres unmarked) [Flurbiprofen] |  | -0.613 | 612.059 | 
22 | O=C1NCN(c2ccccc2)C12CCN(CCCC(c1ccc(F)cc1)c1ccc(F)cc1)CC2 [Fluspirilen] |  | 0.19 | 517.364 | 
23 | CC(C)n1c(/C=C/C(O)CC(O)CC(=O)O)c(-c2ccc(F)cc2)c2ccccc21 (centres unmarked) [Fluvastatin sodium salt] | 89.7998 | -3.098 |  | 
24 | COCCCC/C(=N\OCCN)c1ccc(C(F)(F)F)cc1 [Fluvoxamine maleate] |  | 0.566 | 486.369 | 
